Experimental data published in patent publication US4870160A, “Polypeptides with laminin activity” (Regents of the University of Minnesota, priority 1987, dated 1989).
Peptide text beside a SMILES is read from it.

Experiments:
peptide 13 = target: T1, peptide 13 (Mus musculus, UniProt P02469); experiment: Heparin/peptide interaction specificity, competition on coated peptide 13 (Example 4); type: binding; conditions: 12.5 ug per well of peptide 13 coated, FIG. 8
T1 construct: polypeptide F13 formally represents isolated laminin residues 1171-1188; made in house; host or cells: chemical solid-phase (Merrifield) synthesis, no expression host
Protocol: (§1) To check whether charge was the main factor in the interaction between heparin and peptides 9 and 13, or whether the heparin structure was also critical to this interaction heparin along with two other sulfated glucosaminoglycans, dextran sulfate and chondroitin sulfate were used in competition experiments. A standard amount of 3.1 μg per well of peptide 9 and 12.5 ug per well of peptide 13 were coated on 96-well plates as described above. […] Wells were treated for two hours with 2 mg/ml BSA in wash buffer. Then, a final volume of 50 μls was added to each well, containing a standard amount of 3H-heparin (50,000 cpm per well) and various amounts of non-radioactiveheparin, dextran sulfate and […]. After incubating for two hours at 37° C., the wells were washed and radioactivity was counted as described above in Example 1. […] Therefore, the structure of heparin is a crucial factor for this interaction.

peptide 9 = target: T2, peptide 9 (Mus musculus, UniProt P02469); experiment: Heparin/peptide interaction specificity, competition on coated peptide 9 (Example 4); type: binding; conditions: 3.1 μg per well of peptide 9 coated, FIG. 7
T2 construct: made in house; host or cells: chemical solid-phase (Merrifield) synthesis, no expression host
T2 sequence (P02469 662-681 limits assumed): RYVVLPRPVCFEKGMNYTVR
Protocol: as §1

[1] = system: Bovine aortic endothelial cells; experiment: Aortic endothelial cell adhesion assay (Example 5); type: cell-based; conditions: 0.1; 1.0; and 10.0 μg/per well adsorbed, 120 minutes at 37° C, FIG. 9
Protocol: Bovine aortic endothelial cells were isolated according to the following protocol. Aortas were obtained from a local slaughterhouse, washed in cold phosphate buffered saline (PBS) (136 mM NaCl, 2.6 mM KCl, 15.2 mM Na2HP04, pH 7.2) and processed within 2 hours. Crude collagenase (CLS III, 125-145 units per mg dry weight, Cooper Biomedical) was used at 2 mg/ml in Dulbecco's modified Eagle's medium (DMEM) (GIBCO). The vessel was clamped at the distal end, filled with the collagenase-PBS solution and digestion was carried out for 10 minutes. The lumenal contents were harvested, followed by the addition of fresh collagenase for two additional 10-minute periods. The enzyme-cell suspensions were added to an equal volume of DMEM containing 10% fetal bovine serum (FBS) to inhibit the enzyme and spun in a centrifuge at 400×g for 10 minutes. The resulting cell pellet was resuspended in DMEM containing 10% FBS, 100 units/ml of penicillin G, 100 μg/ml of streptomycin and 100 μg/ml of crude fibroblast growth factor. Cells are cultured in 75 cm^2 flasks in a humidified 5% CO2 atmosphere at 37° C. Cultures were fed twice a week with the same medium and cells were used in assays when approximately 75% confluent. Cells were identified as endothelial in nature by characteristic cobblestone morphology, contact inhibition of growth upon reaching confluency, and positive immunofluorescent staining for factor VIII:RAg (Miles Laboratories) [S. Schwartz, In Vitro, 14, 966 (1978)]. Only endothelial cells, megakaryocytes and platelets are known to contain the factor VIII:RAg. This method routinely gives a high yield of endothelial cells with little contamination (less than 5%) by smooth muscle cells, pericytes or fibroblasts as judged by phase contrast microscopy as well as by immunostaining.
Adhesion was measured using 96 well microtiter plates adsorbed with three different amounts (0.1; 1.0; and 10.0 μg/per well) of peptides 9, 11-18, BSA and laminin. Cultures of cells which were 60-80% confluent were metabolically labeled for 24 hours with the addition of 3 mCi/ml of ^3 H-amino acid mixture. On the day of the assay, the cells were harvested by trypsinization, the trypsin was inhibited by the addition of serum, and the cells were washed free of this mixture and resuspended in DMEM buffered with HEPES at pH 7.2. The adhesion medium also contained 2 mg/ml BSA. The cells were adjusted to a concentration of 3-4×10^4 /ml and 100 μls of this cell suspension was added to the wells. The assay mixture was then incubated at 37° C for 120 minutes. […] The solubilized cells were then quantitated using a liquid scintillation counter. […]

[2] = Heparin binding to peptides coated on 96-well plastic plates (Example 2); conditions: 1 mg/ml to 1 μg/ml, two hours at 37° C., FIG. 5
Protocol: In order to test the ability of the synthesized peptides (9 and 11-18) to bind to 96-well plastic plates (in which experiments with cultured cell lines can be performed), we did an experiment similar to that described above in Example 1. Stock solutions of peptides 9 and 11-18, laminin and BSA at a maximum concentration of 1 mg/ml were prepared and serially diluted in PBS+NaN3 producing final concentration from 1 mg/ml to 1 μg/ml. Fifty μl from each concentration was coated on the 96-well plates and left to dry overnight at 28° C. Then, wells were treated for two hours with […] of 2 mg/ml BSA in 6 mM phosphate, 100 mM NaCl, 68 μM CaCl2, pH 6.8 (wash buffer) in order to minimize non-specific binding. Next 50 μls of ^3 H-heparin (10 μg/ml) was added (50,000 cpm/well) for two hours at 37° C. The wells were then washed three times with wash buffer containing 0.05% Triton X-100 and finally they were incubated for thirty minutes at 60 C with 200 μl of 0.5 N NaOH and 1% SDS. The amount of ^3 H-heparin bound at each peptide concentration was quantitated as described above in Example 1.

Row | Compound | molar concentration needed for 50% inhibition of ^3 H-heparin binding, relative to heparin (peptide 13) | molar concentration needed for 50% inhibition of ^3 H-heparin binding, relative to heparin (peptide 9) | endothelial cell adhesion [1] | binding of ^3 H-heparin [2]
1 | dextran sulfate | Ten to one hundred times more molar concentration | Ten to one hundred times more molar concentration |  | 
2 | CC[C@H](C)[C@H](NC(=O)[C@H](Cc1ccc(O)cc1)NC(=O)CNC(=O)[C@@H]1CCCN1C(=O)[C@H](CC(=O)O)NC(=O)[C@H](CS)NC(=O)[C@@H](N)C(C)C)C(=O)NCC(=O)N[C@@H](CO)C(=O)N[C@@H](CCCNC(=N)N)C(=O)O [Peptide F18, VCDPGYIGSR] (H-VCDPGYIGSR-OH) |  |  | potent promoters of endothelial cell adhesion | 
3 | VEGVEGPRCDKCTRGY [Peptide F12, 16-mer, laminin B1 chain aa 1133-1148] |  |  | potent promoters of endothelial cell adhesion | 
4 | dermatan sulfate | Ten to one hundred times more molar concentration | Ten to one hundred times more molar concentration |  | 
5 | laminin |  |  |  | bind heparin very well
